{"source": "patent US20100160454A1", "about": "“ANTIMICROBIAL AGENTS, COMPOSITIONS AND PRODUCTS CONTAINING THE SAME, AND METHODS OF USING THE COMPOSITIONS AND PRODUCTS” (Eastman Chemical Company, priority 2008, published 2010)", "format_in_all_cases": "cell-based", "key": {"[1]": {"test_system": "Microsporum canis (ATTC 9084)", "assay": "Challenge testing against pathogenic fungi, growth rating in broth tubes", "set-up": "key: 0: No visible growth; 1: Some growth in tube; 2: Moderate growth in tube; 3: Good growth in tube; 4: Extreme growth in tube", "outline": "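Fungi grown in Sabouraud dextrose broth (M. furfur with 2% olive oil/0.2% Tween 80), 22±2 °C; tubes of 1,4-CHDM-D90 dilutions inoculated, static incubation, subcultured at 3, 14, 30 days, triplicate. Growth rated 0–4: visually (M. canis), INT redox dye (T. rubrum), pellicle formation (M. furfur); 30-day MIC.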"}, "[2]": {"test_system": "Staphylococcus epidermidis ATCC 12228", "assay": "Microbiological challenge testing in BPW broth, graded subculture counts", "protocol": "(§1) The microorganisms in the table below were used in challenge tests. They were either ATCC (American Type Culture Collection) or “wild type” as indicated. Wild type organisms were problematic organisms previously isolated from chemical products.\n(§2) All of the microorganisms were grown in Tryptose Soy Broth (TSB), DIFCO™ available from Becton, Dickinson and Company, containing 1% dextrose. Candida albicans and Aspergillus niger, were incubated at 22° C.+/−2° C. for at least 96 hours. All bacteria were incubated at 35° C.+/−2° C. in a humidified incubator for at least 96 hours.\n(§3) The following procedure was followed to determine the amount of each challenge material (inoculum broth) needed to produce a 10^8 CFU/mL challenge, which is equivalent to a final test-sample microbial concentration of 10^5 to 10^6 CFU/mL (CFU=colony forming units).\n(§4) Using a sterile pipette, 1 mL of the growth from each TSB culture was transferred into tubes of 9 mL buffered water (pH 7.2 phosphate buffer) and mixed thoroughly. This was repeated to make serial 1:10 dilutions. Then, 0.1 mL of each sample and dilution was inoculated onto agar plates to produce the equivalent of a further 1:10 dilution. (C. albicans and A. niger were inoculated onto SABD and bacteria were inoculated onto Plate Count Agar (PCA), DIFCO™ available from Becton, Dickinson and Company.) (The normal volume plated for most samples was 0.1 mL. Some samples that could be very low in micro-organisms (high dilutions) were plated using 0.5 mL of inoculum, in order to produce reproducible counts.) The samples were distributed on the plates using the spread-plate technique. The spread-plate technique is carried out by spreading the sample over the entire plate surface using a sterile spreading rod while rotating the plate with a rotary auto-plater. After the inoculum was absorbed completely by the agar, each plate was inverted and incubated (fungi at 22° C.+/−2° C. and bacteria at 35° C.+/−2° C.).\n(§5) After incubation for at least 48 hours, colonies that had developed on the agar plates were counted (CFU) and recorded with the corresponding dilution. If counting had to be delayed temporarily, plates were refrigerated, preferably no more than 24 hours, until they could be counted. The number of CFU/mL was determined by multiplying the plate count by the dilution factor of the plate counted.\n(§6) Turbidity in Nepholemetric Turbidity Units (NTU) was measured for each serial dilution using the HF-Micro 100 Model Turbidimeter. For each microorganism, the plate counts were compared to the turbidity readings.\n(§7) Control substrates (“broth alone”) were prepared for each microorganism separately in triplicate by adding 13.5 mL of Buffered Peptone Water broth (BPW) containing 1% dextrose to each 20-mL glass tube, then adding 1.5 mL challenge material to produce a final concentration at time zero of 10^5 to 10^6 CFU/mL and a total volume of 15 mL.\n(§8) Test sample substrates were prepared containing each test material listed below at the concentrations shown for challenge testing with each microorganism separately. Sample substrates were prepared in triplicate, except the substrates containing butoxyethanol which were prepared in duplicate. Substrates were prepared by adding BPW containing 1% dextrose to each 20-mL glass tube, then adding the test material in the amount appropriate to achieve the desired weight/volume percent and to achieve a total volume of BPW plus dextrose plus test material of 13.5 mL. Then 1.5 mL challenge material was added to produce a final concentration at time zero of 10^5 to 10^6 CFU/mL and a total test sample substrate volume of 15 mL."}, "[3]": {"test_system": "Streptococcus mutans ATCC 35668", "assay": "Microbiological challenge testing in BPW broth, graded subculture counts", "protocol": "as §1, §2, §3, §4, §5, §6, §7, §8"}, "[4]": {"test_system": "Burkholderia cepacia Wild type", "assay": "Microbiological challenge testing in BPW broth, graded subculture counts", "conditions": "B. cepacia", "protocol": "as §1, §2, §3, §4, §5, §6, §7, §8"}}, "data": [{"smiles": "OCC1CCC(CO)CC1", "note": "(stereo not drawn) [1,4-CHDM, 1,4-cyclohexanedimethanol]", "values": [{"measurement": "M. canis growth rating, 3 day", "setting": "[1]; 0.5% weight/volume", "value": 2}, {"measurement": "M. canis growth rating, 14 day", "setting": "[1]; 0.5% weight/volume", "value": 1}, {"measurement": "M. canis growth rating, 30 day", "setting": "[1]; 0.5% weight/volume", "value": 1}, {"measurement": "M. canis growth rating, 3 day", "setting": "[1]; 1.25% weight/volume", "value": 2}, {"measurement": "M. canis growth rating, 14 day", "setting": "[1]; 1.25% weight/volume", "value": 1}, {"measurement": "M. canis growth rating, 30 day", "setting": "[1]; 1.25% weight/volume", "value": 1}, {"measurement": "M. canis growth rating, 3 day", "setting": "[1]; 2.5% weight/volume", "value": 2}, {"measurement": "M. canis growth rating, 14 day", "setting": "[1]; 2.5% weight/volume", "value": 0}, {"measurement": "M. canis growth rating, 30 day", "setting": "[1]; 2.5% weight/volume", "value": 0}, {"measurement": "M. canis growth rating, 3 day", "setting": "[1]; 5.0% weight/volume", "value": 0}, {"measurement": "M. canis growth rating, 14 day", "setting": "[1]; 5.0% weight/volume", "value": 0}, {"measurement": "M. canis growth rating, 30 day", "setting": "[1]; 5.0% weight/volume", "value": 0}, {"measurement": "S. epidermidis growth grade, 3 day", "setting": "[2]; 0.5% weight/volume", "value": "4 (1000 to 10,000 colonies countable (thus 10,000 CFU/mL to 100,000 CFU/mL))"}, {"measurement": "S. epidermidis growth grade, 13 day", "setting": "[2]; 0.5% weight/volume", "value": "4 (1000 to 10,000 colonies countable (thus 10,000 CFU/mL to 100,000 CFU/mL))"}, {"measurement": "S. epidermidis growth grade, 30 day", "setting": "[2]; 0.5% weight/volume", "value": "4 (1000 to 10,000 colonies countable (thus 10,000 CFU/mL to 100,000 CFU/mL))"}, {"measurement": "S. epidermidis growth grade, 3 day", "setting": "[2]; 1.25% weight/volume", "value": "2 (52 to 100 colonies counted (thus 520 to 1000 CFU/mL))"}, {"measurement": "S. epidermidis growth grade, 13 day", "setting": "[2]; 1.25% weight/volume", "value": 0.7}, {"measurement": "S. epidermidis growth grade, 30 day", "setting": "[2]; 1.25% weight/volume", "value": "2 (52 to 100 colonies counted (thus 520 to 1000 CFU/mL))"}, {"measurement": "S. epidermidis growth grade, 3 day", "setting": "[2]; 2.5% weight/volume", "value": 0.7}, {"measurement": "S. epidermidis growth grade, 13 day", "setting": "[2]; 2.5% weight/volume", "value": 0}, {"measurement": "S. epidermidis growth grade, 30 day", "setting": "[2]; 2.5% weight/volume", "value": 0}, {"measurement": "S. epidermidis growth grade, 3 day", "setting": "[2]; 5.0% weight/volume", "value": 0}, {"measurement": "S. epidermidis growth grade, 13 day", "setting": "[2]; 5.0% weight/volume", "value": 0}, {"measurement": "S. epidermidis growth grade, 30 day", "setting": "[2]; 5.0% weight/volume", "value": 0}, {"measurement": "S. mutans growth grade, 3 day", "setting": "[3]; 0.5% weight/volume", "value": "4 (1000 to 10,000 colonies countable (thus 10,000 CFU/mL to 100,000 CFU/mL))"}, {"measurement": "S. mutans growth grade, 13 day", "setting": "[3]; 0.5% weight/volume", "value": "4 (1000 to 10,000 colonies countable (thus 10,000 CFU/mL to 100,000 CFU/mL))"}, {"measurement": "S. mutans growth grade, 30 day", "setting": "[3]; 0.5% weight/volume", "value": "4 (1000 to 10,000 colonies countable (thus 10,000 CFU/mL to 100,000 CFU/mL))"}, {"measurement": "S. mutans growth grade, 3 day", "setting": "[3]; 1.25% weight/volume", "value": "4 (1000 to 10,000 colonies countable (thus 10,000 CFU/mL to 100,000 CFU/mL))"}, {"measurement": "S. mutans growth grade, 13 day", "setting": "[3]; 1.25% weight/volume", "value": "2 (52 to 100 colonies counted (thus 520 to 1000 CFU/mL))"}, {"measurement": "S. mutans growth grade, 30 day", "setting": "[3]; 1.25% weight/volume", "value": "2 (52 to 100 colonies counted (thus 520 to 1000 CFU/mL))"}, {"measurement": "S. mutans growth grade, 3 day", "setting": "[3]; 2.5% weight/volume", "value": "2 (52 to 100 colonies counted (thus 520 to 1000 CFU/mL))"}, {"measurement": "S. mutans growth grade, 13 day", "setting": "[3]; 2.5% weight/volume", "value": 0}, {"measurement": "S. mutans growth grade, 30 day", "setting": "[3]; 2.5% weight/volume", "value": 0}, {"measurement": "S. mutans growth grade, 3 day", "setting": "[3]; 5.0% weight/volume", "value": 0}, {"measurement": "S. mutans growth grade, 13 day", "setting": "[3]; 5.0% weight/volume", "value": 0}, {"measurement": "S. mutans growth grade, 30 day", "setting": "[3]; 5.0% weight/volume", "value": 0}, {"measurement": "Grade", "setting": "[4]; 0.5% (wt/vol), 3 day", "value": "4 (1000 to 10,000 colonies countable (thus 10,000 CFU/mL to 100,000 CFU/mL))"}, {"measurement": "Grade", "setting": "[4]; 0.5% (wt/vol), 14 day", "value": "4 (1000 to 10,000 colonies countable (thus 10,000 CFU/mL to 100,000 CFU/mL))"}, {"measurement": "Grade", "setting": "[4]; 0.5% (wt/vol), 30 day", "value": "4 (1000 to 10,000 colonies countable (thus 10,000 CFU/mL to 100,000 CFU/mL))"}, {"measurement": "Grade", "setting": "[4]; 1.25% (wt/vol), 3 day", "value": "4 (1000 to 10,000 colonies countable (thus 10,000 CFU/mL to 100,000 CFU/mL))"}, {"measurement": "Grade", "setting": "[4]; 1.25% (wt/vol), 14 day", "value": "2 (52 to 100 colonies counted (thus 520 to 1000 CFU/mL))"}, {"measurement": "Grade", "setting": "[4]; 1.25% (wt/vol), 30 day", "value": "4 (1000 to 10,000 colonies countable (thus 10,000 CFU/mL to 100,000 CFU/mL))"}, {"measurement": "Grade", "setting": "[4]; 2.5% (wt/vol), 3 day", "value": 0}, {"measurement": "Grade", "setting": "[4]; 2.5% (wt/vol), 14 day", "value": 0}, {"measurement": "Grade", "setting": "[4]; 2.5% (wt/vol), 30 day", "value": 0}, {"measurement": "Grade", "setting": "[4]; 5.0% (wt/vol), 3 day", "value": 0}, {"measurement": "Grade", "setting": "[4]; 5.0% (wt/vol), 14 day", "value": 0}, {"measurement": "Grade", "setting": "[4]; 5.0% (wt/vol), 30 day", "value": 0}]}]}
